According to US20160355782A1, “METHOD FOR ENHANCING DIFFERENTIATION OF DOPAMINERGIC NEURONS” (Buddhist Tzu Chi Medical Foundation, priority 2015, published 2016):

What was measured:
VM precursor cultures = experiment: DA uptake assay in VM precursor cultures; assay type: cell-based, rat; details: 1 μM UCN, 4 days
Method: For DA uptake assay, cells were washed twice with warm Krebs-Ringer buffer (16 mM sodium phosphate, 119 mM NaCl, 4.7 mM KCl, 1.8 mM CaCl2, 1.2 mM MgSO4, 1.3 mM EDTA and 5.6 mM glucose, pH 7.4), and then incubated with 1 μM [^3H]-dopamine(DA)(60 Ci/mmol, PerkinElmer) in Krebs-Ringer buffer at 37° C. for 20 min. After washing with ice-cold Krebs-Ringer buffer, cells were collected in 1 N NaOH and radioactivity was counted with a liquid scintillation counter. Non-specific uptake was determined in parallel wells that received both the tritiated tracer and 10 μM mazindol. The specific [^3H] DA were calculated by subtracting the amount of radioactivity obtained in the presence of mazindol from that obtained in the absence of mazindol.

[1] = system: Nurr1-transduced cortical NPCs; experiment: Real-time RT-PCR of DA phenotype genes in Nurr1-transduced cortical NPCs; assay type: cell-based, rat; details: 0.5 μM UCN, 3 days
Method: TH promoter assay or lenti-virial transductions were carried out at 60%˜70% cell confluences (usually for 3 days) as described below. Cell differentiation was induced for 3 to 5 days by switching to mitogens-free DMEM/F12/N2 medium in the presence of 0.5 μM UCN. Differentiation medium was changed every other day.
For lenti-viral transduction, E13 cortical NPCs were incubated with lenti-viruses (25 multiplicity of infection) expressing Nurr1 or GFP containing poly-brene (hexadimethrine bromide, 1 μg/mL, Sigma-Aldrich) for 24 hours. After 1 day of further cell expansion in the presence of the mitogens, cells were induced to differentiate.
Total RNA was extracted from VM tissues or cultured VM precursors with TRIzol® reagent (Invitrogen). One-step real-time RT-PCR analysis was performed to determine the expression of genes (Power SYBR® Green RNA-to-CT™ 1-step kit, Applied Biosystems, Foster City, Calif.). Threshold cycle (CO value for each test gene was normalized to the Ct value for the β-actin control from the same RNA preparations. The ratio of transcription of each gene was calculated as 2^−(ΔCt), where ΔCt is the difference Cr (test gene)−Ct (β-actin). The primers used herein are listed in Table 1.

VM of E16.5 rat embryos = experiment: In vivo DA neuron differentiation in VM of rat embryos (immuno-histochemistry)
Method: The pregnant rats on day 12.5 of gestation were intra-peritoneally injected with saline or 10 μg/kg UCN every 24 hours for 3 days (FIGS. 7H & 7I) or 4 days (FIGS. 7A, 7B, & 7E-7G) before sacrifice. FIG. 7A is an image of immuno-staining against TH of rat E16.5 mesencephalon. FIG. 7B is cell counting analysis of TH^+ cells in the VM of E16.5 saline and UCN-treated embryos (**p<0.01 compared with saline group). […] FIGS. 7H and 7I show histone H3 acetylation (H) and Nurr1 recruitments (I) at the TH promoter by ChIP analyses which were performed with chromatin prepared from E15.5 VM tissue of saline or UCN-treated embryos (*p<0.05; **p<0.01 compared with saline groups). Con: control medium.
For immuno-histochemistry, rat embryos were perfused with 4% paraformaldehyde, cryopreserved with 30% sucrose in PBS overnight, embedded in Tissue Tek OCT compound (Sakura Finetek, Torrance, Calif.), and then frozen at −80° C. For Nurr1 staining, the embryos were perfused with 4% paraformaldehyde/0.15% picric acid followed by soaking in the same solution overnight at 4° C. Coronal sections (16 μm thick) were blocked with 2% FBS and 3% normal goat or normal donkey serum for 1 h at room temperature, and subsequently incubated with primary antibodies overnight at room temperature. Primary antibodies were rabbit anti-Lmx1b (1:3000), guinea-pig anti-Lmx1b (1:1500), rabbit anti-UCN (1:200), goat anti-CRHR1 (1:100), rabbit anti-CRHR2 (1:250), mouse anti-Nurr1 (1:100), rabbit anti-Nurr1 (1:100), and mouse anti-TH (1:2000). After washing with PBS, secondary antibodies conjugated to the FITC or rhodamine were applied to sections for 1 h. Sections were examined with fluorescent microscope or confocal microscope. Quantitative cell counts were performed in every third section through the entire A9-A10 populations in 5-10 embryos per condition.

[2] = system: acetylated histone H3 (Ac-H3); experiment: Histone H3 acetylation (Western blot, immuno-staining) in VM precursor cultures; assay type: cell-based, rat
Method: For immuno-cytochemistry, cells were fixed with 4% paraformaldehyde followed by blocking with PBS containing 0.4% Triton X-100, 3% normal goat serum and 2% bovine serum albumin (BSA) for 1 h at room temperature. After blocking, cells were incubated overnight at room temperature with primary antibodies. Primary antibodies were rabbit anti-UCN (1:200), mouse anti-TH (1:2000) (both from Sigma-Aldrich), goat anti-CRHR1 (1:100), rabbit anti-CRHR2 (1:250), rat anti-dopamine transporter (DAT, 1:200), chicken anti-MAP2 (1:5000) (all from Abcam, Cambridge, Mass.), rabbit anti-Nurr1 (1:100, Santa Cruz Biotechnology), mouse anti-Nurr1 (1:100, R&D Systems, Minneapolis, Minn.), rabbit anti-TH (1:1000), mouse anti-NeuN (1:200) (both from Chemicon, Temecula, Calif.), rabbit anti-acetyl-histone H3 (1:1000, Upstate Biotechnology, Lake Placid, N.Y.), rabbit anti-Foxa2 (1:500, Cell Signaling Technology), and rabbit anti-Pitx3 (1:100, Invitrogen).
For Western blot analysis, VM precursor cells were lysed in M-PER® Mammalian Protein Extraction Reagent (Pierce). Protein concentration was determined by Bradford assay (Bio-Rad, Hercules, Calif.). 30˜50 μg of protein sample was separated on 10˜12% sodium dodecyl sulphate-polyacrylamide gel (SDS-PAGE) and transferred to immobilon polyvinylidene difluoride (PVDF) membranes (Merck Millipore). The membranes were incubated in Tris-buffered saline (TBST, 0.1 M Tris/HCl, pH 7.4, 0.9% NaCl, 0.1% Tween 20) supplemented with 5% non-fat dry milk for 1 h to block nonspecific binding. […] The antigen-antibody complex was detected by using an ECL chemi-luminescence detection system (PerkinElmer, Boston, Mass.). The intensity of the bands was quantified with a GS-800 calibrated densitometer (Bio-Rad), and calculated as the optical density X area of bands.

What does the source list for Urocortin [UCN]?
DAT-mediated specific DA uptake (VM precursor cultures): significantly enhanced; DAT gene expression [1]: increased gene expression; TH gene expression [1]: increased gene expression; VMAT2 gene expression [1]: increased gene expression; proportion of TH+/Nurr1+ cells in the VM (VM of E16.5 rat embryos; UCN treated vs saline-treated embryos, E16.5): significant proportion of the Nurr1+ cells differentiate into TH+ neurons; number of ventral mesencephalic TH+ cells (VM of E16.5 rat embryos; pregnant rats, 10 μg/kg UCN i.p. every 24 hours for 4 days, E16.5 embryos): increased number; Nurr1+ cell numbers in the VM (VM of E16.5 rat embryos; saline vs UCN-treated embryos, E16.5): no significant difference; Ac-H3-immuno-reactivity in non- or Nurr1-expressing cells ([2]; 1 μM UCN, 1 hour): increased; levels of Ac-H3 (Western blot) ([2]; 1 μM UCN, within minutes): significantly increases; duration of histone H3 acetylation ([2]; single application of UCN): at least 48 hours
